Data on two molecules can be found in patent US4082761A, “Triazolo[4,3-a][1,4]benzodiazepinium quaternary salts” (The Upjohn Company, priority 1973, dated 1978).

Counter-ions that a name gives are not always drawn.

Common to all, as to assay type: in vivo
For assay [1], the system named is mice. The assay is described as follows: Chimney test (mice fail to back up and out of a vertical glass cylinder within 30 seconds). The settings on record: Mus musculus, ip; intraperitoneal injection in mice; 50% of the mice failed to back out within 30 seconds; read-out: ED50 Ch (chimney test). From the text: (§1) Tranquilizing effects of the compounds of this invention are shown by the following tests in mice:
Chimney test: [Med. Exp. 4, 145 (1961)]: The test determines the ability of mice to back up and out of a vertical glass cylinder within 30 seconds. At the effective dosage, 50% of the mice failed doing it.

For assay [2], the system named is mice. Briefly: Pedestal test (mice stay on the pedestal for more than 1 minute). The settings on record: Mus musculus, ip, 1 min, intraperitoneal injection in mice, read-out: ED50 P (pedestal test). How it is done:
as §1
Pedestal test: The untreated mouse leaves a standard pedestal in less than a minute to climb back to the floor of the standard mouse box. Tranquilized mice will stay on the pedestal for more than 1 minute.

Assay [3] concerns mice. Briefly: Dish test (mice remaining in the dish for more than 3 minutes). The settings on record: Mus musculus, ip, 0.05 h; intraperitoneal injection in mice; 50% of the mice remain in the dish for more than 3 minutes; read-out: ED50 D (dish test). How it is done:
as §1
Dish test: Mice in Petri dishes (10 cm. diameter, 5 cm. high, partially embedded in wood shavings), climb out in a very short time, when not treated. Mice remaining in the dish for more than 3 minutes indicates tranquilization. ED50 equals the dose of test compound at which 50% of the mice remain in the dish.

For assay [4], the system named is mice. The assay is described as follows: Nicotine antagonism test (nicotine salicylate 2 mg./kg.). The settings on record: Mus musculus, ip, intraperitoneal injection in mice, nicotine salicylate 2 mg./kg. thirty minutes later. How it is done: as §1
Nicotine antagonism test: Mice in a group of 6 are injected with the test compound. Thirty minutes later the mice including control (untreated) mice are injected with nicotine salicylate (2 mg./kg.). The control mice show overstimulation, i.e., (1) running convulsions followed by (2) tonic extensor fits; followed by (3) death.
Ni = nicotine antagonism (2) and (3) tests.

Where [5] appears, read: (2) tonic extensor fits, read-out: ED50 Ni(2) (nicotine antagonism (2) test).
[6] abbreviates: (3) death, read-out: ED50 Ni(3) (nicotine antagonism (3) test).

Turning to `C[n+]1nc([O-])n2c1CN=C(c1ccccc1Cl)c1cc(Cl)ccc1-2` [8-Chloro-6-(o-chlorophenyl)-1-hydroxy-3-methyl-4H-s-triazolo[4,3-a][1,4]benzodiazepinium hydroxide inner salt], the ED50 in the assay on mice [1] was 1.6 mg/kg; in the assay on mice [2], 3.2 mg/kg; in the assay on mice [3], 1.2 mg/kg; with mice [4] (setting [5]), 0.3 mg/kg; with mice [4] (setting [6]) it was 0.44 mg/kg.

Turning to `Cc1n[n+](C)c2n1-c1ccc(Cl)cc1C(c1ccccc1)=NC2` [8-Chloro-1,3-dimethyl-6-phenyl-4H-s-triazolo[4,3-a][1,4]benzodiazepinium chloride sesquihydrate], the ED50 came out at 36 mg/kg in the assay on mice [1]; 79 mg/kg with mice [2]; 79 mg/kg in the assay with mice [3]; 22 mg/kg in the assay with mice [4] (setting [5]); 22 mg/kg in the assay on mice [4] (setting [6]).

Broadly, the ED50 is the dose at which the effect has come halfway, by size or by number of responders.
